Experimental findings from US12655107B2 (The United States of America, as represented by the …, priority 2018, dated 2026) are described below.

One assay deals with T1, Top1 (Homo sapiens, UniProt P11387).
T1 sequence (P11387 1-765): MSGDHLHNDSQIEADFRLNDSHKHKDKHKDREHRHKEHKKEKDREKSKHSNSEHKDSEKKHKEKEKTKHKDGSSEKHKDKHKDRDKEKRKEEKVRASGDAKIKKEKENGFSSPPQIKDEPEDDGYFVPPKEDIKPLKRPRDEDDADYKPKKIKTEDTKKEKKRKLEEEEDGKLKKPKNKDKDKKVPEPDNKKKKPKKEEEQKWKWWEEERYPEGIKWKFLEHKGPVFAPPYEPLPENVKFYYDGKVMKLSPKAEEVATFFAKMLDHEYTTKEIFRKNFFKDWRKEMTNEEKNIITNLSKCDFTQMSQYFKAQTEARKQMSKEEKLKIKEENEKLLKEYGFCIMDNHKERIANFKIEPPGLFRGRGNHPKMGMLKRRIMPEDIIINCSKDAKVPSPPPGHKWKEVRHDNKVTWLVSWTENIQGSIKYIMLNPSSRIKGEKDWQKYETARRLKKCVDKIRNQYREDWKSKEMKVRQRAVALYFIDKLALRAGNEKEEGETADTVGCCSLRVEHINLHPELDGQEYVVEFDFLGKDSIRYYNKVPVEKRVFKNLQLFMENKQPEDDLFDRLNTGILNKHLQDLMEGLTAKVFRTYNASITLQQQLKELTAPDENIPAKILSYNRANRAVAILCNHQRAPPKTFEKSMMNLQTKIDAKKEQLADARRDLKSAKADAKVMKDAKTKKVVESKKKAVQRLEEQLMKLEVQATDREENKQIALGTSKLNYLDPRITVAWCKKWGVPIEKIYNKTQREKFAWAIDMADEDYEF
In words: Top1-mediated DNA cleavage assay. The assay is classed as biochemical.

Another assay concerns DU145. Briefly: MTT cytotoxicity assay, DU145. The assay is classed as cell-based, human. The note with it: 72 h. The method, then:
(§1) Cytotoxicity Assays. […] The cells were incubated with the tested compounds for 72 hours in a five-dose assay ranging from 0.01 to 100 μM concentration. After drug treatments, MTT solution was added to test the percentage growth of tumor cells.
(§2) The compounds were incubated with the cells for 72 hours in a five-dose assay ranging from 0.01 to 100 μM concentration. At the end of the incubation, the MTT solution was added to test the percentage growth of tumor cells.
(§3) For the drug treatment experiments, the cancer cells were treated with the compounds (predissolved in DMSO) at a five-dose assay ranging from 0.01 to 100 μM concentration. […] After 4 h incubation, the formazan crystal formed in the well was dissolved with […] of DMSO for optical density reading at 570 nm. The GI50 value was calculated by nonlinear regression analysis (GraphPad Prism).
(In general: Tetrazolium dyes change colour on reduction, which living cells bring about.)

A further assay concerns MCF-7. Briefly: MTT cytotoxicity assay, MCF-7. In kind it is cell-based, human. The note with it: Table 7, read-out: GI50 ± SC (μM) MCF-7. The method, then: as §2, §3
The test system of the next assay is HCT116. Briefly: MTT cytotoxicity assay, HCT116. The assay is classed as cell-based, human. The note with it: 72 h. The method, then:
as §1, §2, §3

A further assay deals with A549. In words: MTT cytotoxicity assay, A549. In kind it is cell-based, human. The method, then: as §1, §2, §3
A further assay deals with CCRF-CEM. In words: MTT cytotoxicity assay, CCRF-CEM. In kind it is cell-based, human. The note with it: 72 h, Table 1b. The method, then:
as §1, §3

The test system of another assay is Huh7. Briefly: MTT cytotoxicity assay, Huh7. The assay is classed as cell-based, human. The note with it: Table 1b. The method, then: as §1, §3
The target in assay [1] is T2, Top1-DNA covalent cleavage complexes in HCT116 cells (Homo sapiens, UniProt P11387).
T2 construct: endogenous in cells; host or cells: HCT116 (human colon cancer)
In words: Immunocomplex of enzyme to DNA (ICE) assay. Conditions: HCT116, 25, 50 and 100 μM. The assay is classed as cell-based.

[2] abbreviates: graded relative to CPT at 1 μM, Table 7.
Where [3] appears, read: Table 7, read-out: GI50 ± SC (μM) DU145.
[4] abbreviates: Table 7, read-out: GI50 ± SC (μM) HCT116.
Setting [5] is: 72 h, Table 7, read-out: GI50 ± SC (μM) A-49.

Read-outs that look alike come from different tables or passages of the source.

The term GI50 denotes the concentration that inhibits growth by half. Consider `COc1cc2c(=O)n(CCNC(=O)C3CC3)c3c4cc5c(cc4ccc3c2cc1OC)OCO5` [Compound 63, N-(2-(2,3-dimethoxy-13-oxo-[1,3]dioxolo[4,5′:4,5]benzo[1,2-c]phenanthridin-12(13H)-yl)ethyl)cyclopropanecarboxamide], for which the TOP1 inhibition result on Top1 (setting [2]) was “+ (+, between 20% and 50% activity)”. Further, the GI50 turned out to be 7.8 ± 0.52 µM in the assay with DU145 (setting [3]), 2.2 ± 0.27 µM in the assay with MCF-7 (72 h), 5.3 ± 0.11 µM with HCT116 (setting [4]) and 1.3 ± 0.006 µM in the assay with A549 (setting [5]).
For “Dimethyl(2-(2,3-dimethoxy-13-oxo-[1,3]dioxolo[4′,5′:4,5]benzo[1,2-c]phe-nanthridin-12(13H)-yl)ethyl)(methyl)phosphoramidate [Compound 56]”, the TOP1 inhibition result at Top1 (setting [2]) is “++ (++, between 50% and 75% activity)”. Further, the GI50 with DU145 (setting [3]) was found to be 5.3 ± 0.21 µM; in the assay on MCF-7 (72 h) it was 10 ± 0.54 µM; in the assay on HCT116 (setting [4]) it was 9.2 ± 0.14 µM; in the assay on A549 (setting [5]), 14 ± 1.4 µM.
Regarding `COc1cc2c(=O)n(CCNS(=O)(=O)N3CCOCC3)c3c4cc5c(cc4ccc3c2cc1OC)OCO5` [Compound 61, N-(2-(2,3-dimethoxy-13-oxo-[1,3]dioxolo[4′,5′:4,5]benzo[1,2-c]phenanthridin-12(13H)-yl)ethyl)morpholine-4-sulfonamide], at Top1 (setting [2]), the TOP1 inhibition entry was “++ (++, between 50% and 75% activity)”. Besides, the GI50 came to 1.6 ± 0.021 µM in the assay on DU145 (setting [3]), 0.89 ± 0.12 µM in the assay on MCF-7 (72 h), 1.1 ± 0.047 µM with HCT116 (setting [4]) and 2.9 ± 0.027 µM in the assay on A549 (setting [5]).
On to `COc1cc2c(=O)n(CCNS(=O)(=O)N3CCCC3)c3c4cc5c(cc4ccc3c2cc1OC)OCO5` [Compound 60, N-(2-(2,3-dimethoxy-13-oxo-[1,3]dioxolo[4′,5′:4,5]benzo[1,2-c]phenanthridin-12(13H)-yl)ethyl)pyrrolidine-1-sulfonamide], for which the 50% growth inhibitory concentration (GI50) in the assay with DU145 (setting [3]) turned out to be 79 ± 1 µM; in the assay with MCF-7 (72 h), 38 ± 0.78 µM; in the assay on HCT116 (setting [4]) it was 34 ± 1.1 µM; with A549 (setting [5]), 61 ± 0.15 µM.
For `COc1cc2c(=O)n(C)c3c4cc5c(cc4ccc3c2cc1OC)OCO5` [Compound 6, oxynitidine, reference compound], the GI50 is 64.2 ± 10.9 µM in the assay on DU145 (Table 1b, read-out: GI50 (μM) DU145); 26.5 ± 5.41 µM in the assay with CCRF-CEM; above 100 µM in the assay on Huh7 (72 h); 74.8 ± 4.36 µM in the assay on HCT116 (Table 1b, read-out: GI50 (μM) HCT116); 39.4 ± 26.2 µM in the assay with A549 (72 h, Table 1b, read-out: GI50 (μM) A549).
Take `COc1cc2c(=O)n(CCN(C)S(=O)(=O)N3CCOCC3)c3c4cc5c(cc4ccc3c2cc1OC)OCO5` [Compound 55, N-(2-(2,3-dimethoxy-13-oxo-[1,3]dioxolo[4′,5′:4,5]benzo[1,2-c]phenanthridin-12(13H)-yl)ethyl)-N-methylmorpholine-4-sulfonamide]: the TOP1 inhibition entry on Top1 (setting [2]) is “+ (+, between 20% and 50% activity)”. The GI50 in the assay with DU145 (setting [3]) was determined as 48 ± 1.2 µM; with MCF-7 (72 h), 64 ± 0.57 µM; with HCT116 (setting [4]), 40 ± 1.2 µM; with A549 (setting [5]), 35 ± 2.5 µM.
For `COc1cc2c(=O)n(CCNP(=O)(OC)OC)c3c4cc5c(cc4ccc3c2cc1OC)OCO5` [Compound 62, Dimethyl(2-(2,3-dimethoxy-13-oxo-[1,3]dioxolo[4′,5′:4,5]benzo[1,2-c]phenanthridin-12(13H)-yl)ethyl)phosphoramidate], the GI50 came to 39 ± 2.2 µM in the assay with DU145 (setting [3]), 48 ± 1.9 µM with MCF-7 (72 h), 51 ± 1.5 µM in the assay on HCT116 (setting [4]) and 41 ± 2 µM in the assay with A549 (setting [5]).
As to `COc1cc2c(=O)n(CCNS(=O)(=O)C3CC3)c3c4cc5c(cc4ccc3c2cc1OC)OCO5` [Compound 58, N-(2-(2,3-dimethoxy-13-oxo-[1,3]dioxolo[4′,5′:4,5]benzo[1,2-c]phenanthridin-12(13H)-yl)ethyl)cyclopropanesulfonamide], on Top1 (setting [2]), the TOP1 inhibition entry was “++ (++, between 50% and 75% activity)”. The 50% growth inhibitory concentration (GI50) with DU145 (setting [3]) worked out at 1.3 ± 0.32 µM; in the assay on MCF-7 (72 h) it was 3 ± 0.63 µM; in the assay on HCT116 (setting [4]), 5.2 ± 0.13 µM; in the assay with A549 (setting [5]), 4.3 ± 0.21 µM.
In the case of “N-(2-(2,3-dimethoxy-13-oxo-[1,3]dioxolo[4′,5′:4,5]benzo[1,2-c]phenanthridin-12(13H)-yl)ethyl)-N-methyldiethylamine-1-sulfonamide [Compound 53]”, the TOP1 inhibition result at Top1 (setting [2]) is “+ (+, between 20% and 50% activity)”. Besides, the GI50 in the assay with DU145 (setting [3]) came to 15 ± 0.59 µM; with MCF-7 (72 h), 1.5 ± 0.15 µM; with HCT116 (setting [4]), 0.96 ± 0.04 µM; with A549 (setting [5]), 7.9 ± 0.23 µM.
As to `COc1cc2c(=O)n(CCN(C)S(=O)(=O)C(F)(F)F)c3c4cc5c(cc4ccc3c2cc1OC)OCO5` [Compound 51, N-(2-(2,3-dimethoxy-13-oxo-[1,3]dioxolo[4′5′:4,5]benzo[1,2-c]phenanthridin-12(13H)-yl)ethyl)-1,1,1-trifluoro-N-methylmethanesulfonamide], the GI50 turned out to be 65 ± 1.2 µM in the assay with DU145 (setting [3]), 35 ± 1.7 µM in the assay on MCF-7 (72 h), 86 ± 2.5 µM in the assay with HCT116 (setting [4]) and 42 ± 0.98 µM in the assay with A549 (setting [5]).
As to `COc1cc2c(=O)n(CCNS(=O)(=O)N(C)C)c3c4cc5c(cc4ccc3c2cc1OC)OCO5` [Compound 59, N-(2-(2,3-dimethoxy-13-oxo-[1,3]dioxolo[4′,5′:4,5]benzo[1,2-c]phenanthridin-12(13H)-yl)ethyl)dimethylamine-1-sulfonamide], the TOP1 inhibition entry at Top1 (setting [2]) was “+ (+, between 20% and 50% activity)”. Besides, the GI50 in the assay with DU145 (setting [3]) was determined as 45 ± 1.2 µM; in the assay on MCF-7 (72 h), 21 ± 1 µM; in the assay on HCT116 (setting [4]), 30 ± 2.1 µM; in the assay on A549 (setting [5]), 35 ± 0.14 µM.
For the compound `COc1cc2c(=O)n(CCN(C)S(=O)(=O)C3CC3)c3c4cc5c(cc4ccc3c2cc1OC)OCO5` [Compound 52, N-(2-(2,3-dimethoxy-13-oxo-[1,3]dioxolo[4′,5′:4,5]benzo[1,2-c]phenanthridin-12(13H)-yl)ethyl)-N-methylcyclopropanesulfonanide], on Top1 (setting [2]), the TOP1 inhibition result is “+ (+, between 20% and 50% activity)”. The GI50 in the assay on DU145 (setting [3]) turned out to be 10 ± 1.2 µM; in the assay on MCF-7 (72 h), 5.8 ± 0.89 µM; with HCT116 (setting [4]), 7.9 ± 0.15 µM; with A549 (setting [5]), 15 ± 1.5 µM.
For `COc1cc2c(=O)n(CCN(C)S(=O)(=O)N3CCCC3)c3c4cc5c(cc4ccc3c2cc1OC)OCO5` [Compound 54, N-(2-(2,3-dimethoxy-13-oxo-[1,3]dioxolo[4,5′:4,5]benzo[1,2-c]phenanthridin-12(13H)-yl)ethyl)-N-methylpyrrolidine-1-sulfonamide], the TOP1 inhibition entry at Top1 (setting [2]) was “+ (+, between 20% and 50% activity)”. Besides, the GI50 in the assay on DU145 (setting [3]) amounted to 3.1 ± 0.3 µM; with MCF-7 (72 h), 3.8 ± 0.25 µM; with HCT116 (setting [4]), 2.5 ± 0.18 µM; in the assay on A549 (setting [5]), 5.3 ± 0.41 µM.
Take `CC[C@@]1(O)C(=O)OCc2c1cc1n(c2=O)Cc2cc3ccccc3nc2-1` [Compound 1, camptothecin, reference compound]: the TOP1 inhibition result is “++++” on Top1 (setting [2]) and “++++ (++++, equal activity)” at Top1 (semi-quantitative score relative to CPT (1) at 1 μM, tested at 0.1-100 μM). Also, the concentration for 50% growth inhibition (GI50) in the assay with MCF-7 (Homo sapiens, MCF7, 72 h) is 0.012 ± 0.002 µM; in the assay with CCRF-CEM (Homo sapiens, CCRF-CEM), 0.007 ± 0.003 µM; in the assay with Huh7 (Homo sapiens, Huh-7, 72 h) it was 0.099 ± 0.017 µM; in the assay on A549 (Homo sapiens, A549, 72 h, Table 7, read-out: GI50 ± SC (μM) A-49), 0.099 ± 0.017 µM. Also, the “induction of cellular Top1cc” value in assay [1] is recorded as “induced the formation of cellular TOP1 cc in a dose-dependent manner”.
